Results reported in paper PMC7913927, “Leishmanicidal Activity of Betulin Derivatives in Leishmania amazonensis; Effect on Plasma and Mitochondrial Membrane Potential, and Macrophage Nitric Oxide and Superoxide Production” (Microorganisms, 2021).
Where two headings read alike, the source gives them in different places.

Tests used:
[1] = test system: L. (L.) donovani axenic amastigotes; conditions: cited from earlier work
[2] = test system: VE2000MM intracellular amastigotes in J774.1 macrophages; assay: Macrophage-amastigote model, patient isolate VE2000MM; assay type: cell-based, Leishmania amazonensis; conditions: for Regresion (GraphPad 6) of %Control vs dose (50% inhibitory concentration) / Growth (%) Exp1 %Control / Growth (%) Exp1 A/100MØ / Growth (%) Exp1 A/MØ / Growth (%) Exp1 Infección / Growth (%) Exp2 %Control / Growth (%) Exp2 A/100MØ / Growth (%) Exp2 A/MØ / Growth (%) Exp2 Infección / Growth (%) Exp3 %Control / Growth (%) Exp3 A/100MØ / Growth (%) Exp3 A/MØ / Growth (%) Exp3 Infección / Average A/100MØ: VE2000MM; for Regresion (GraphPad 6) of %Control vs dose (50% inhibitory concentration): unit from Dose head; for Average A/100MØ: average of Exp1-3
Description: We used a previously described methodology, with some modifications. Macrophage monolayers, grown in RMPIc medium, for 3 days, were detached from the bottom of the culture chamber, by physical treatment (low temperature and light strokes). Obtained macrophages were seeded in flat-bottom 96-well culture plates, at a density of 2 × 10^5 cells mL^−1 (40,000 macrophages/well), in a final volume of 200 µL. Plates were incubated for 2 h, and the supernatant was discarded to remove non-adhered macrophages. Medium was replaced with stationary-phase promastigotes suspended in 200 µL of RPMIc (2 × 10^6 parasites mL^−1, 400,000 parasites/well), at a macrophage: parasite ratio 1:10 [40]. The plates were incubated for 4 h. Afterwards the medium was replaced with fresh RPMIc and increasing concentrations of compounds or drugs tested were applied, in volumes of 2 µL, according to the different treatment groups. Plates were kept for 72 h, at 37 °C and 5% CO2. The medium was discarded and the wells were washed twice with PBS. Next, a Giemsa staining was performed in situ. It consisted of adding 200 µL of methanol/well, incubating for 5 min, discarding the fixative, and letting it dry at room temperature. Later, the Giemsa solution (10% in PBS w/v, 200 µL/well) was added, incubated for 10 min, and washed with PBS, allowing it to dry. Finally, the bottom of the plates was detached by percussion and the circular bottoms (wells) were fixed to slides with Permount synthetic resin, for later evaluation (Alcazar W., manuscript in preparation). Cell counting was performed with a 100× immersion objective. A minimum of 200 random macrophages were examined. The percentage of infected macrophages (% infection) and the average number of amastigotes present in infected macrophages (amastigotes) were determined. […] The infection rate represents the number of intracellular amastigotes per 100 macrophages evaluated. Additionally, the GI50 for the decrease in the infection rate was calculated. At least three independent experiments were performed. The effect of amphotericin-B (AmB) [Sigma-Aldrich, (St. Louis, MO, USA)] was included as positive control of the assay.

J774.1 macrophages = assay: Cytotoxicity (Alamar Blue) in macrophages; assay type: cell-based, murine; conditions: 72 h
Description: In flat-bottom 96-well culture plates, J774.1 macrophages were seeded at a cell density of 5 × 10^4 mL^−1 (10,000 macrophages/well) in 200 µL of RPMIc. After 24 h at 37 °C, 5% CO2, medium was replaced by 180 µL of RPMIc, without phenol red, and increasing concentrations of test compounds in 2-µL volumes. […] At least two independent experiments were performed in duplicate. Based on the inhibition of cell growth caused by the tested compounds, the percentage of growth inhibition compared to untreated cells was calculated. […] Selectivity indices (SI) were calculated, dividing the macrophage CC50 by the parasites GI50 (SI = CC50/GI50).

[3] = test system: L. (V.) braziliensis promastigotes, reference strain MHOM/BR/LTB300; conditions: reference strain MHOM/BR/LTB300; cited from earlier work

C=C(C)C1CCC2(C=NO)CCC3(C)C(CCC4C5(C)CCC(=NO)C(C)(C)C5CCC43C)C12 (stereo not shown) [Compound 18]
GI50 [1]: 22800 nM | SI (CC50/GI50) VE2000MM ([2]; J774.1 CC50 / intracellular amastigote GI50, Table 2): 66.79 | GI50 ([2]; VE2000MM intracellular amastigotes, read-out: GI50 (µM) Experiment 1 Regresion): 0.87 µM | GI50 ([2]; VE2000MM intracellular amastigotes, read-out: GI50 (µM) Experiment 2 Regresion): 0.43 µM | GI50 ([2]; VE2000MM intracellular amastigotes, read-out: GI50 (µM) Experiment 3 Regresion): 0.62 µM | Regresion (GraphPad 6) of %Control vs dose (50% inhibitory concentration) ([2]; Exp1): 0.87 µM | Regresion (GraphPad 6) of %Control vs dose (50% inhibitory concentration) ([2]; Exp2): 0.43 µM | Regresion (GraphPad 6) of %Control vs dose (50% inhibitory concentration) ([2]; Exp3): 0.62 µM | Growth (%) Exp1 %Control ([2]; dose 0.10 µM, Exp1): 85.88% | Growth (%) Exp1 A/100MØ ([2]; dose 0.10 µM, Exp1): 212.29 | Growth (%) Exp1 A/MØ ([2]; dose 0.10 µM, Exp1): 3.35 | Growth (%) Exp1 Infección ([2]; dose 0.10 µM, Exp1): 63.37% | Growth (%) Exp2 %Control ([2]; dose 0.10 µM, Exp2): 78.62% | Growth (%) Exp2 A/100MØ ([2]; dose 0.10 µM, Exp2): 190.11 | Growth (%) Exp2 A/MØ ([2]; dose 0.10 µM, Exp2): 3.20 | Growth (%) Exp2 Infección ([2]; dose 0.10 µM, Exp2): 59.41% | Growth (%) Exp3 %Control ([2]; dose 0.10 µM, Exp3): 72.17% | Growth (%) Exp3 A/100MØ ([2]; dose 0.10 µM, Exp3): 163.09 | Growth (%) Exp3 A/MØ ([2]; dose 0.10 µM, Exp3): 3.10 | Growth (%) Exp3 Infección ([2]; dose 0.10 µM, Exp3): 52.61% | Average A/100MØ ([2]; dose 0.10 µM): 188.50 | Growth (%) Exp1 %Control ([2]; dose 0.50 µM, Exp1): 66.72% | Growth (%) Exp1 A/100MØ ([2]; dose 0.50 µM, Exp1): 164.92 | Growth (%) Exp1 A/MØ ([2]; dose 0.50 µM, Exp1): 2.90 | Growth (%) Exp1 Infección ([2]; dose 0.50 µM, Exp1): 56.87% | Growth (%) Exp2 %Control ([2]; dose 0.50 µM, Exp2): 51.58% | Growth (%) Exp2 A/100MØ ([2]; dose 0.50 µM, Exp2): 124.74 | Growth (%) Exp2 A/MØ ([2]; dose 0.50 µM, Exp2): 2.98 | Growth (%) Exp2 Infección ([2]; dose 0.50 µM, Exp2): 41.86% | Growth (%) Exp3 %Control ([2]; dose 0.50 µM, Exp3): 54.73% | Growth (%) Exp3 A/100MØ ([2]; dose 0.50 µM, Exp3): 123.67 | Growth (%) Exp3 A/MØ ([2]; dose 0.50 µM, Exp3): 3.24 | Growth (%) Exp3 Infección ([2]; dose 0.50 µM, Exp3): 38.17% | Average A/100MØ ([2]; dose 0.50 µM): 137.78 | Growth (%) Exp1 %Control ([2]; dose 1.00 µM, Exp1): 45.38% | Growth (%) Exp1 A/100MØ ([2]; dose 1.00 µM, Exp1): 112.17 | Growth (%) Exp1 A/MØ ([2]; dose 1.00 µM, Exp1): 2.76 | Growth (%) Exp1 Infección ([2]; dose 1.00 µM, Exp1): 40.64% | Growth (%) Exp2 %Control ([2]; dose 1.00 µM, Exp2): 23.47% | Growth (%) Exp2 A/100MØ ([2]; dose 1.00 µM, Exp2): 56.76 | Growth (%) Exp2 A/MØ ([2]; dose 1.00 µM, Exp2): 1.93 | Growth (%) Exp2 Infección ([2]; dose 1.00 µM, Exp2): 29.41% | Growth (%) Exp3 %Control ([2]; dose 1.00 µM, Exp3): 44.34% | Growth (%) Exp3 A/100MØ ([2]; dose 1.00 µM, Exp3): 100.21 | Growth (%) Exp3 A/MØ ([2]; dose 1.00 µM, Exp3): 2.85 | Growth (%) Exp3 Infección ([2]; dose 1.00 µM, Exp3): 35.16% | Average A/100MØ ([2]; dose 1.00 µM): 89.71 | Growth (%) Exp1 %Control ([2]; dose 5.00 µM, Exp1): 12.40% | Growth (%) Exp1 A/100MØ ([2]; dose 5.00 µM, Exp1): 30.64 | Growth (%) Exp1 A/MØ ([2]; dose 5.00 µM, Exp1): 1.33 | Growth (%) Exp1 Infección ([2]; dose 5.00 µM, Exp1): 23.04% | Growth (%) Exp2 %Control ([2]; dose 5.00 µM, Exp2): 17.91% | Growth (%) Exp2 A/100MØ ([2]; dose 5.00 µM, Exp2): 43.32 | Growth (%) Exp2 A/MØ ([2]; dose 5.00 µM, Exp2): 2.00 | Growth (%) Exp2 Infección ([2]; dose 5.00 µM, Exp2): 21.66% | Growth (%) Exp3 %Control ([2]; dose 5.00 µM, Exp3): 26.77% | Growth (%) Exp3 A/100MØ ([2]; dose 5.00 µM, Exp3): 60.50 | Growth (%) Exp3 A/MØ ([2]; dose 5.00 µM, Exp3): 2.96 | Growth (%) Exp3 Infección ([2]; dose 5.00 µM, Exp3): 20.44% | Average A/100MØ ([2]; dose 5.00 µM): 44.82 | Growth (%) Exp1 %Control ([2]; dose 10.00 µM, Exp1): 11.00% | Growth (%) Exp1 A/100MØ ([2]; dose 10.00 µM, Exp1): 27.18 | Growth (%) Exp1 A/MØ ([2]; dose 10.00 µM, Exp1): 1.50 | Growth (%) Exp1 Infección ([2]; dose 10.00 µM, Exp1): 18.12% | Growth (%) Exp2 %Control ([2]; dose 10.00 µM, Exp2): 9.36% | Growth (%) Exp2 A/100MØ ([2]; dose 10.00 µM, Exp2): 22.64 | Growth (%) Exp2 A/MØ ([2]; dose 10.00 µM, Exp2): 1.78 | Growth (%) Exp2 Infección ([2]; dose 10.00 µM, Exp2): 12.72% | Growth (%) Exp3 %Control ([2]; dose 10.00 µM, Exp3): 7.87% | Growth (%) Exp3 A/100MØ ([2]; dose 10.00 µM, Exp3): 17.78 | Growth (%) Exp3 A/MØ ([2]; dose 10.00 µM, Exp3): 1.69 | Growth (%) Exp3 Infección ([2]; dose 10.00 µM, Exp3): 10.52% | Average A/100MØ ([2]; dose 10.00 µM): 22.53 | GI50 ([2]; intracellular amastigotes, Supplementary Materials II, read-out: GI50 (µM) VE2000MM, mean of three experiments): 0.64 µM | CC50 (J774.1 macrophages): 48100 nM | active concentration in L. (L.) braziliensis [3]: less than 10 µM
